Test results reported in patent US12649750B2, “Macrocyclic compounds, compositions, and methods of using thereof” (Sionna Therapeutics Inc., priority 2022, dated 2026).

Molecular target: T1, NBD1 (Homo sapiens, UniProt P13569)
T1 construct: Purified recombinant NBD1 was produced using previously described methods; made in house
Assay: Aggregation analysis using differential static light scattering (DSLS), thermal stability of NBD1 (ΔTagg)
Type: binding
Conditions: ΔTagg versus DMSO control, NBD1 0.2 mg/ml
Protocol: Example 386. Aggregation Analysis Using Differential Static Light Scattering (DSLS)
Purified recombinant NBD1 was produced using previously described methods (A. Schmidt, J. L. Mendoza, P. J. Thomas (2011) Biochemical and Biophysical Approaches to Probe CFTR Structure (365-376) M. D. Amaral, K. Kunzelmann (eds.), Cystic Fibrosis, Methods in Molecular Biology 741, Springer Science+Business Media). The effect of test compounds on thermal stability of NBD1 was evaluated by differential static light scattering (DSLS) using the Harbinger Stargazer-384 instrument (Epiphyte Three, Toronto, Canada). Test compounds were dissolved and diluted to desired concentrations in 100% DMSO. The compounds or DMSO controls (100 nL) were stamped into wells of a […] low volume optical plate (Corning Inc., Corning, NY) using the Echo 555 acoustic liquid handler (Labcyte Inc., San Jose, CA).
NBD1 protein was diluted to 0.2 mg/ml in S200 buffer (50 mM Tris-HCl, 150 mM NaCl, 5 mM MgCl2, 2 mM ATP, 2 mM DTT, pH7.6) containing 1% glycerol. 10 uL of protein solution was aliquoted into the 384-well plate harboring the test compounds and 10 uL mineral oil was overlaid onto the protein solution, using the epMotion robotic liquid handler (Eppendorf North America, Hauppauge, NY). After placing into the Stargazer instrument, the plate was heated at 1° C. per minute to 70° C. Images were captured from 25° C. to 70° C. every 0.5° C. At the end of the experiment run, instrument software integrated image files and analyzed data automatically. A […] regression curve was generated for each well, representing the increase in light scattering over time. A temperature of aggregation (Tagg) was calculated based on the inflection point of the curve. To better compare data across experiments the average Tagg for DMSO control wells was calculated and subtracted from values for wells containing compounds to obtain a “ΔTagg” value. These ΔTagg values reflect stabilizing efficacy of the compounds. As set forth in Table 2 below, an ΔTagg value less than or equal to 5° C. is marked “A”; a value above 5° C. and less than or equal to 10° C. is marked “B”; a value greater than 10° C. and less than or equal to 25° C. is marked “C”.

T1 sequence (P13569 423-646 limits assumed): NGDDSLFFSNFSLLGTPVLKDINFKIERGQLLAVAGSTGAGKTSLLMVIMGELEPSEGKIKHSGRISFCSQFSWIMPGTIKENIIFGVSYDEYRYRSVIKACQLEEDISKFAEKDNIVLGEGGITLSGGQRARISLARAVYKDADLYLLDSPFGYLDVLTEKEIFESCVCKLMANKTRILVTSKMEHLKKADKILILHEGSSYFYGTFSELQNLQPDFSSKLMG

Structure (SMILES)	DSLS 3D (100 μM ΔT)
Cn1nc2nc1-c1cc(ccn1)[S+]([O-])c1c(F)c(F)c3[nH]ccc3c1CCS(=O)(=O)CC(C)(C)CCC[C@]2(C)c1cccc(CC2(C(=O)O)CC2)c1 (single isomer, unassigned) [Compound 309]	B (a value above 5 °C and less than or equal to 10 °C is marked “B”)
C[C@@H](Cc1cccc(C2(C)CCCC(C)(C)CS(=O)(=O)CCc3c(c(F)cc4[nH]ccc34)Sc3ccnc(c3)-c3nc2nn3C)n1)C(=O)O (single isomer, unassigned) [Compound 314A]	A (an ΔTagg value less than or equal to 5 °C is marked “A”)
C[C@@H](Cc1cccc(C2(C)CCCC(C)(C)CS(=O)(=O)CCc3c(c(F)cc4[nH]ccc34)Sc3ccnc(c3)-c3nc2nn3C)n1)C(=O)O (single isomer, unassigned) [Compound 314B]	B (a value above 5 °C and less than or equal to 10 °C is marked “B”)
C[C@@H](Cc1cccc(C2(C)CCCC(C)(C)CS(=O)(=O)CCc3c(c(F)cc4[nH]ccc34)[S+]([O-])c3ccnc(c3)-c3nc2nn3C)n1)C(=O)O (single isomer, unassigned) [Compound 315A]	A (an ΔTagg value less than or equal to 5 °C is marked “A”)
C[C@@H](Cc1cccc(C2(C)CCCC(C)(C)CS(=O)(=O)CCc3c(c(F)cc4[nH]ccc34)[S+]([O-])c3ccnc(c3)-c3nc2nn3C)n1)C(=O)O (single isomer, unassigned) [Compound 315B]	A (an ΔTagg value less than or equal to 5 °C is marked “A”)
C[C@@H](Cc1cccc(C2(C)CCCC(C)(C)CS(=O)(=O)CCc3c(c(F)cc4[nH]ccc34)[S+]([O-])c3ccnc(c3)-c3nc2nn3C)n1)C(=O)O (single isomer, unassigned) [Compound 315C]	A (an ΔTagg value less than or equal to 5 °C is marked “A”)
C[C@@H](Cc1cccc(C2(C)CCCC(C)(C)CS(=O)(=O)CCc3c(c(F)cc4[nH]ccc34)[S+]([O-])c3ccnc(c3)-c3nc2nn3C)n1)C(=O)O (single isomer, unassigned) [Compound 315D]	B (a value above 5 °C and less than or equal to 10 °C is marked “B”)
CC1c2ccnc(c2)-c2nc(nn2C)[C@@](C)(c2cccc(C[C@H](C)C(=O)O)c2)CCCC(C)(C)CS(=O)(=O)CCc2c1c(F)c(F)c1[nH]ccc21 (single isomer, unassigned) [Compound 316A]	B (a value above 5 °C and less than or equal to 10 °C is marked “B”)
CC1c2ccnc(c2)-c2nc(nn2C)[C@@](C)(c2cccc(C[C@H](C)C(=O)O)c2)CCCC(C)(C)CS(=O)(=O)CCc2c1c(F)c(F)c1[nH]ccc21 (single isomer, unassigned) [Compound 316B]	A (an ΔTagg value less than or equal to 5 °C is marked “A”)
CC1c2ccnc(c2)-c2nc(nn2C)[C@@](C)(c2cccc(C[C@@H](C)C(=O)O)c2)CCCC(C)(C)CS(=O)(=O)CCc2c1c(F)c(F)c1[nH]ccc21 (single isomer, unassigned) [Compound 317A]	B (a value above 5 °C and less than or equal to 10 °C is marked “B”)
CC1c2ccnc(c2)-c2nc(nn2C)[C@@](C)(c2cccc(C[C@@H](C)C(=O)O)c2)CCCC(C)(C)CS(=O)(=O)CCc2c1c(F)c(F)c1[nH]ccc21 (single isomer, unassigned) [Compound 317B]	A (an ΔTagg value less than or equal to 5 °C is marked “A”)
CC1c2ccnc(c2)-c2nc(nn2C)[C@@](C)(c2cccc(CC(C)(C)C(=O)O)c2)CCCC(C)(C)CS(=O)(=O)CCc2c1c(F)c(F)c1[nH]ccc21 (single isomer, unassigned) [Compound 318A]	A (an ΔTagg value less than or equal to 5 °C is marked “A”)
CC1c2ccnc(c2)-c2nc(nn2C)[C@@](C)(c2cccc(CC(C)(C)C(=O)O)c2)CCCC(C)(C)CS(=O)(=O)CCc2c1c(F)c(F)c1[nH]ccc21 (single isomer, unassigned) [Compound 318B]	A (an ΔTagg value less than or equal to 5 °C is marked “A”)
